Test [1] has as its target recombinant His-tag Wip1 full length protein (amino acids #1-605) (Homo sapiens (Human), UniProt O15297). The test is described as follows: Wip1 full length phosphatase enzyme FDP assay. Particulars: fluorescein diphosphate (FDP) substrate, RT 2 hours, fluorescence Ex485/Em535. Format: biochemical. The procedure:
The Human Wip1 (2-420, aa 2-420) or Wip1 full length (aa 1-605) DNA sequence was codon optimized and synthesized by Genscript for insect cell expression. The open reading frame of Wip1(2-420) with a N-terminal-His6 affinity tag followed by a TEV cleavage site was subcloned sites into the pFastBac1 expression vector. The recombinant bacmid DNA was transfected in Sf9 insect cells for baculovirus production. After 72 hours infection, the Sf9 cells were harvested by centrifugation and resuspended in lysis buffer containing 50 mM Tris/HCl, pH 8.0, 500 mM NaCl, 20% glycerol, Benzonase 0.5% CHAPS and Roche cOmplete™ EDTA free protease inhibitors. Cells were disrupted with microfluidizer and the debris was removed by centrifugation at 185,000 g for 1 hour. The supernatant was subjected to HisTrap FF for affinity purification. Proteins were eluted with a linear gradient of 0-500 mM imidazole in HisTrap buffer containing 50 mM Tris/HCl, pH 8.0, 500 mM NaCl and 20% glycerol, 0.05% CHAPS. The eluted protein was dialyzed against dialysis buffer (20 mM MES, 100 mM NaCl, 20% glycerol, 0.5 mM TCEP, 0.05% CHAPS) followed purification via HiTrap SP HP column. The protein was eluted with a gradient of 100 mM-2 M NaCl in dialysis buffer. His6-[…] was finally concentrated and loaded onto a size-exclusion column (NiLoad 16/600 Superdex 200 pg, GE Healthcare) pre-equilibrated with 50 mM MOPS (pH 7.5), 200 mM NaCl, 20% glycerol, 1 mM TCEP, 0.05% CHAPS and 0.1 mM EGTA. The peak fractions containing purified Nis6-Wip1(2-420) were pooled and concentrated to 1.0 mg/mL and flash frozen at −80° C.
Wip1 Length and Wip1(2-420) Phosphatase Enzyme FDP Assays.
Test compounds (252 mM stock in DMSO) were diluted 3 folds in series in DMSO and 1.2 μl per well were added into 384-well polypropylene black plates (Nunc). Twelve μl per well of Assay Buffer (100 mM NaCl, 50 mM MOPS, pH 7.5, 0.8 mM CHAPS, 0.1 mM EGTA, 30 mM MgCl2, 0.3 mM TCEP, 0.2 mg/mL BSA) was added followed by […] per well of 50.4 nM recombinant His-tag Wip1 full length protein (amino acids #1-605) or recombinant His-tag Wip1(2-420) protein (amino acids #2-420) in Assay Buffer and the plate was incubated at RT (22° C.) for 5 min. Ten mM of fluorescein diphosphate (FDP) in DMSO was diluted to […] in Assay Buffer and […] per well was added to the plate and incubated at RT (22° C.) for 2 hours. […] per well of 64.1 mM EDTA in water were added to stop the enzyme reaction. The plate was centrifuged at 1,200 rpm (Eppendorf 5810R Plate centrifuge) for 1 minute and fluorescence intensity (Ex485/Em535) was measured on Perkin Elmer Victor Reader. EC50 values were calculated using either Prism (GraphPad) or ActivityBase software (IDBS), The IC50 results are provided in Table M.

For test [2], the target named is recombinant His-tag Wip1(2-420) protein (amino acids #2-420) (Homo sapiens (Human), UniProt O15297). Description: Wip1(2-420) phosphatase enzyme FDP assay. Format: biochemical. Conditions: fluorescein diphosphate (FDP) substrate, RT 2 hours, fluorescence Ex485/Em535; read-out: WIP1 (Truncated 2-420) FDP Assay: IC50.
Chain of recombinant His-tag Wip1(2-420) protein (amino acids #2-420) (O15297 2-420): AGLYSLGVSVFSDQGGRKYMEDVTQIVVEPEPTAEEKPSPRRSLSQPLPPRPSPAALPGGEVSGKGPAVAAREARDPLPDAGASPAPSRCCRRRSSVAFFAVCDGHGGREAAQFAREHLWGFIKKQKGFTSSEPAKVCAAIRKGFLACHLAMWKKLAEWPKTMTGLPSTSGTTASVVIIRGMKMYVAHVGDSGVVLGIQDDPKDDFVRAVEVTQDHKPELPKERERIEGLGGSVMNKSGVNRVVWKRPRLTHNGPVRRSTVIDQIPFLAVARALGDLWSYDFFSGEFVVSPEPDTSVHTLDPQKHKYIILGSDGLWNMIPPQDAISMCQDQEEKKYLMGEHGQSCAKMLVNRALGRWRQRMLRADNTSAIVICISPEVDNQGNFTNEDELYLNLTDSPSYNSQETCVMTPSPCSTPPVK

Chain of recombinant His-tag Wip1 full length protein (amino acids #1-605) (O15297 whole entry, the tested form may be a part): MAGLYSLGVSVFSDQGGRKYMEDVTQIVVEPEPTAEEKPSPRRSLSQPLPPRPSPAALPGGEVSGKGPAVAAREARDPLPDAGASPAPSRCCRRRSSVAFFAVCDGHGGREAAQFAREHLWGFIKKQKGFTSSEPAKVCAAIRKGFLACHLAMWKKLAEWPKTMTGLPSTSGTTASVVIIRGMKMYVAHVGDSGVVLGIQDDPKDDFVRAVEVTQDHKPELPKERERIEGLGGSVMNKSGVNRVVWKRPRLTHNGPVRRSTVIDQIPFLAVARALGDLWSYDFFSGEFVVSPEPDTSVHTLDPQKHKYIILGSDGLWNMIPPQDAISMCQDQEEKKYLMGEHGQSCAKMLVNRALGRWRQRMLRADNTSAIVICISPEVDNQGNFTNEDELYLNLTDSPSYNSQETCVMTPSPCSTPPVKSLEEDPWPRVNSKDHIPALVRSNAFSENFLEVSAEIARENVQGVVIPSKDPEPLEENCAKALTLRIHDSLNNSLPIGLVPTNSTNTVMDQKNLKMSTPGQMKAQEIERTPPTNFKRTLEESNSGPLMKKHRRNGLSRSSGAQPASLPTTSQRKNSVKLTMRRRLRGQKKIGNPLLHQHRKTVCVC

In the case of `C[C@@H](Nc1cccc(Cl)c1)c1ccc(C(=O)N[C@@H](CC2CCCC2)C(=O)NC2CC2)s1` [Compound 1, 5-[1-(3-chloroanilino)ethyl]-N-[(1S)-1-(cyclopentylmethyl)-2-(cyclopropylamino)-2-oxo-ethyl]thiophene-2-carboxamide], the half-maximal inhibitory concentration (IC50) (in general, the concentration that inhibits the measured activity by half) in test [1] is 9 nM; in test [2], 6 nM.
Take `C[C@H](Nc1cccc(Cl)c1)c1ccc(C(=O)N[C@@H](CC2CCCC2)C(=O)NC2CC2)s1` [Compound 2, 5-[(1S)-1-(3-chloroanilino)ethyl]-N-[(1S)-1-(cyclopentylmethyl)-2-(cyclopropylamino)-2-oxo-ethyl]thiophene-2-carboxamide]: the results for the IC50 in test [1] and in test [2] were 117 nM and 232 nM, respectively.
With `CC(Nc1ccc(F)c(Cl)c1)c1ccc(C(=O)N[C@@H](CC2CCCC2)C(=O)NC2CC2)s1` (stereo partly drawn) [Compound 3, 5-[1-(3-chloro-4-fluoro-anilino)ethyl]-N-[(1S)-1-(cyclopentylmethyl)-2-(cyclopropylamino)-2-oxo-ethyl]thiophene-2-carboxamide], the IC50 in test [1] was 28 nM; in test [2], 60 nM.
The like results for `CC(Nc1cccc(Cl)c1)c1ccc(C(=O)N[C@@H](CC2CCCC2)C(=O)NC2CC2)s1` (stereo partly drawn) [Compound 4, 5-[1-(3-chloroanilino)ethyl]-N-[(1S)-1-(cyclopentylmethyl)-2-(cyclopropylamino)-2-oxo-ethyl]thiophene-2-carboxamide] were, in that order, 15 nM and 79 nM.
The like results for `Cc1ncc(Cl)cc1NC(C)c1ccc(C(=O)N[C@@H](CC2CCCC2)C(=O)NC2CC2)s1` (stereo partly drawn) [Compound 5, 5-[1-[(5-chloro-2-methyl-3-pyridyl)amino]ethyl]-N-[(1S)-1-(cyclopentylmethyl)-2-(cyclopropylamino)-2-oxo-ethyl]thiophene-2-carboxamide] were, in that order, 24 nM and 13 nM.
In the same order, the values of `C[C@H](Nc1ccc(F)c(Cl)c1)c1ccc(C(=O)N[C@@H](CC2CCCC2)C(=O)NC2CC2)s1` [Compound 6, 5-[(1S)-1-(3-chloro-4-fluoro-anilino)ethyl]-N-[(1S)-1-(cyclopentylmethyl)-2-(cyclopropylamino)-2-oxo-ethyl]thiophene-2-carboxamide] are 9 nM and 6 nM.
On to `C[C@@H](Nc1ccc(F)c(Cl)c1)c1ccc(C(=O)N[C@@H](CC2CCCC2)C(=O)NC2CC2)s1` [Compound 7, 5-[(1R)-1-(3-chloro-4-fluoro-anilino)ethyl]-N-[(1S)-1-(cyclopentylmethyl)-2-(cyclopropylamino)-2-oxo-ethyl]thiophene-2-carboxamide], for which the half-maximal inhibitory concentration (IC50) in test [1] turned out to be 68 nM; in test [2] it was 80 nM.
Turning to `Cc1ncc(Cl)cc1N[C@@H](C)c1ccc(C(=O)N[C@@H](CC2CCCC2)C(=O)NC2CC2)s1` [Compound 8, 5-[(1S)-1-[(5-chloro-2-methyl-3-pyridyl)amino]ethyl]-N-[(1S)-1-(cyclopentylmethyl)-2-(cyclopropylamino)-2-oxo-ethyl]thiophene-2-carboxamide], the IC50 is 11 nM in test [1] and 8 nM in test [2].
For the molecule `Cc1ncc(Cl)cc1NC(C)c1ccc(C(=O)N[C@@H](CC2CCCC2)C(=O)NC23CC(C2)C3)s1` (stereo partly drawn) [Compound 10, N-[(1S)-2-(1-bicyclo [1.1.1]pentanylamino)-1-(cyclopentylmethyl)-2-oxo-ethyl]-5-[1-[(5-chloro-2-methyl-3-pyridyl)amino]ethyl]thiophene-2-carboxamide], the results for the IC50 in test [1] and in test [2] were 18 nM and 10 nM, respectively.
The like results for `Cc1ncc(Cl)cc1N[C@@H](C)c1ccc(C(=O)N[C@@H](CC2CCCC2)C(=O)NC23CC(C2)C3)s1` [Compound 11, (2S)-N-{bicyclo[1.1.1]pentan-1-yl}-2-({5-[(1S)-1-[(5-chloro-2-methylpyridin-3-yl)amino]ethyl]thiophen-2-yl}formamido)-3-cyclopentylpropanamide] were, in that order, 9 nM and 6 nM.
In the same order, the values of `Cc1ncc(Cl)cc1N[C@H](C)c1ccc(C(=O)N[C@@H](CC2CCCC2)C(=O)NC23CC(C2)C3)s1` [Compound 12, (2S)-N-{bicyclo[1.1.1]pentan-1-yl}-2-({5-[(1R)-1-[(5-chloro-2-methylpyridin-3-yl)amino]ethyl]thiophen-2-yl}formamido)-3-cyclopentylpropanamide] are 356 nM and 148 nM.
The like results for `Cc1ncc(Cl)cc1NC(C)c1ccc(C(=O)N[C@@H](CC2CCCC2)C(=O)NC2CC2(F)F)s1` (stereo partly drawn) [Compound 13, (2S)-2-[(5-{1-[(5-chloro-2-methylpyridin-3-yl)amino]ethyl}thiophen-2-yl)formamido]-3-cyclopentyl-N-(2,2-difluorocyclopropyl)propanamide] were, in that order, 11 nM and 10 nM.
Consider `Cc1ncc(Cl)cc1N[C@@H](C)c1ccc(C(=O)N[C@@H](CC2CCCC2)C(=O)NC2CC2(F)F)s1` (stereo partly drawn) [Compound 14, (2S)-2-({5-[(1S)-1-[(5-chloro-2-methylpyridin-3-yl)amino]ethyl]thiophen-2-yl}formamido)-3-cyclopentyl-N-(2,2-difluorocyclopropyl)propanamide], for which the results for the IC50 in test [1] and in test [2] were 6 nM and 7 nM, respectively.
The like results for `Cc1ncc(Cl)cc1N[C@H](C)c1ccc(C(=O)N[C@@H](CC2CCCC2)C(=O)NC2CC2(F)F)s1` (stereo partly drawn) [Compound 15, (2S)-2-({5-[(1R)-1-[(5-chloro-2-methylpyridin-3-yl)amino]ethyl]thiophen-2-yl}formamido)-3-cyclopentyl-N-(2,2-difluorocyclopropyl)propanamide] were, in that order, 71 nM and 80 nM.
For the molecule `Cc1ncc(Cl)cc1N[C@@H](C)c1ccc(C(=O)N[C@@H](CC2CCCC2)C(=O)NC23CC(F)(C2)C3)s1` [Compound 16, (2S)-2-({5-[(1S)-1-[(5-chloro-2-methylpyridin-3-yl)amino]ethyl]thiophen-2-yl}formamido)-3-cyclopentyl-N-{3-fluorobicyclo[1.1.1]pentan-1-yl}propanamide], the IC50 in test [1] came out at 10 nM; in test [2], 7 nM.
The like results for `Cc1ncc(Cl)cc1N[C@@H](C)c1ccc(C(=O)N[C@@H](CC2CCCC2)C(=O)NC23CC(C)(C2)C3)s1` [Compound 17, (2S)-2-({5-[(1S)-1-[(5-chloro-2-methylpyridin-3-yl)amino]ethyl]thiophen-2-yl}formamido)-3-cyclopentyl-N-{3-methylbicyclo[1.1.1]pentan-1-yl}propanamide] were, in that order, 6 nM and 7 nM.
`COc1ccc(NC(=O)[C@H](CC2CCCC2)NC(=O)c2ccc([C@H](C)Nc3cc(Cl)cnc3C)s2)cn1` [Compound 276, (2S)-2-({5-[(1S)-1-[(5-chloro-2-methylpyridin-3-yl)amino]ethyl]thiophen-2-yl}formamido)-3-cyclopentyl-N-(6-methoxypyridin-3-yl)propanamide]: the IC50 in test [2] was 5 nM.
On the same count and under the same terms, then `Cc1ncc(Cl)cc1N[C@@H](C)c1ncc(C(=O)N[C@@H](CC2CCCC2)C(=O)NC23CC(C2)C3)s1` [Compound 310, (2S)-N-{bicyclo[1.1.1]pentan-1-yl}-2-({2-[(1S)-1-[(5-chloro-2-methylpyridin-3-yl)amino]ethyl]-1,3-thiazol-5-yl}formamido)-3-cyclopentylpropanamide], with 1020 nM; and `Cc1ncc(Cl)cc1N[C@@H](C)c1ncc(C(=O)N[C@@H](CC2CCCC2)C(=O)NC2CC2)s1` [Compound 311, (2S)-2-({2-[(1S)-1-[(5-chloro-2-methylpyridin-3-yl)amino]ethyl]-1,3-thiazol-5-yl}formamido)-3-cyclopentyl-N-cyclopropylpropanamide], with 1550 nM.

Source of the values: US20240116910A1, “Heterocycles as WIP1 Inhibitors” (PMV Pharmaceuticals, Inc., priority 2022, published 2024).
